Assay results reported in patent US10709159B2, “Increasing the bioavailability of flavan-3-ols with carbohydrates with a low glycemic index” (NESTEC S.A., priority 2012, dated 2020).

Test system: Caco-2 human epithelial colorectal adenocarcinoma cells
Assay: In vitro Caco-2 cell model, transport of (−)-epicatechin
Type: in vitro ADME
Details: for concentration of (−)-epicatechin in the basal compartment in comparison to sucrose: 250 μM (−)-epicatechin plus carbohydrate 100 mg/ml on the apical side, 2 h incubation; for concentration of (−)-epicatechin in the basal compartment when in combination with carbohydrate: (−)-epicatechin in combination with selected low glycemic index carbohydrates
Experimental: Caco-2 human epithelial colorectal adenocarcinoma cells were used to investigate the transport of (−)-epicatechin in vitro. Cells were grown in high glucose DMEM supplemented with 20% heat inactivated fetal bovine serum, non-essential amino acids and 2 mM L-glutamine, amphotericin B (1 μg/ml), penicillin (100 U/ml), and streptomycin (100 μg/ml) and maintained at 37° C. and 5% CO2. The medium was replaced every 2 days and the cells were reseeded every 7 days. Then, cells were seeded in 12-well transwell inserts at a density of 20,000 cells per cm^2 and the medium on both sides was replaced every 2 days. After 21 days, cells were already differentiated. On the experiment day, medium was removed and replaced by HBSS supplemented with 25 mM glucose, 10 mM HEPES and 1.8 mM CaCl2. […] Then, (−)-epicatechin (250 μM) alone or plus carbohydrates (5 to 100 mg/ml) were placed in the apical side of the cell monolayers and incubated for 2 h. All compounds were added to the exposure medium from stock solutions in DMSO. The concentration of DMSO at the apical side was kept at 0.05% in each experiment. (−)-Epicatechin was detected in the cell culture media using ultra-performance liquid chromatography using an Acquity UPLC HSS C18 2.1×100 mm, 1.8 μm column (Waters, Switzerland) equipped with HSS C18 VanGuard pre-column (Waters, Switzerland).

Compound	concentration of (−)-epicatechin in the basal compartment in comparison to sucrose	concentration of (−)-epicatechin in the basal compartment when in combination with carbohydrate
O=C[C@H](O)[C@@H](O)[C@@H](O)[C@H](O)CO [galactose]	significant higher concentration of (−)-epicatechin in the basal compartment	significant increase in the concentration of (−)-epicatechin in the basal compartment
OC[C@@H](O)[C@@H](O)[C@H](O)[C@@H](O)CO [sorbitol, D-sorbitol]	significant higher concentration of (−)-epicatechin in the basal compartment	significant increase in the concentration of (−)-epicatechin in the basal compartment
OC[C@@H](O)[C@H](O)[C@@H](O)CO [xylitol]	significant higher concentration of (−)-epicatechin in the basal compartment	significant increase in the concentration of (−)-epicatechin in the basal compartment
